Laboratory results from patent US5977133A, “Pyridone antibiotic with improved safety profile” (priority 1998, dated 1999).
In brackets after ≈: the same amount, converted by molar mass.

Assays:
Assay type in all cases: cell-based
[1] = system: Shigella spp.; assay: microbe, parasite or virus in culture; conditions: read-out: MIC Range
[2] = system: S. pneumoniae (PenS); assay: In vitro MIC, agar dilution; conditions: Streptococcus pneumoniae
[3] = system: S. aureus (CiproS); assay: In vitro MIC, agar dilution; conditions: Staphylococcus aureus
[4] = system: P. mirabilis; assay: In vitro MIC, agar dilution; conditions: Proteus mirabilis
[5] = system: E. faecalis (VanS); assay: In vitro MIC, agar dilution; conditions: Enterococcus faecalis
[6] = system: C. difficile; assay: In vitro MIC, agar dilution; conditions: Clostridioides difficile
[7] = system: S. aureus (CiproR); assay: In vitro MIC, agar dilution; conditions: Staphylococcus aureus
[8] = system: S. pneumoniae (CiproR); assay: In vitro MIC, agar dilution; conditions: Streptococcus pneumoniae, read-out: MIC Range
[9] = system: E. faecium (CiproS); assay: In vitro MIC, agar dilution; conditions: Enterococcus faecium, E. faecium (CiproS), 16 isolates
[10] = system: N. gonorrhoeae; assay: In vitro MIC, agar dilution; conditions: Neisseria gonorrhoeae
[11] = system: S. pneumoniae (PenR); assay: In vitro MIC, agar dilution; conditions: Streptococcus pneumoniae
[12] = system: P. aeruginosa (CiproR); assay: In vitro MIC, agar dilution; conditions: Pseudomonas aeruginosa
[13] = system: Providencia spp.; assay: In vitro MIC, agar dilution; conditions: Providencia spp., 28 isolates
[14] = system: M. pneumoniae; assay: In vitro MIC, agar dilution; conditions: Mycoplasmoides pneumoniae, read-out: MIC Range
[15] = system: S. pyogenes; assay: In vitro MIC, agar dilution; conditions: Streptococcus pyogenes
[16] = system: S. epidermidis (CiproS); assay: In vitro MIC, agar dilution; conditions: Staphylococcus epidermidis
[17] = system: C. freundii; assay: In vitro MIC, agar dilution; conditions: Citrobacter freundii
[18] = system: H. pylori; assay: In vitro MIC, agar dilution; conditions: Helicobacter pylori
[19] = system: B. fragilis; assay: In vitro MIC, agar dilution; conditions: Bacteroides fragilis
[20] = system: M. catarrhalis; assay: In vitro MIC, agar dilution; conditions: Moraxella catarrhalis
[21] = system: Enterococcus spp. (VanR); assay: In vitro MIC, agar dilution; conditions: Enterococcus spp. (VanR), 21 isolates
[22] = system: S. epidermidis (CiproR); assay: In vitro MIC, agar dilution; conditions: Staphylococcus epidermidis, S. epidermidis (CiproR), 11 isolates
[23] = system: M. avium; assay: In vitro MIC, agar dilution; conditions: Mycobacterium avium
[24] = system: E. faecium (CiproR); assay: In vitro MIC, agar dilution; conditions: Enterococcus faecium; E. faecium (CiproR), 2 isolates; read-out: MIC Range
[25] = system: Enterobacter spp.; assay: In vitro MIC, agar dilution
[26] = system: H. influenzae; assay: In vitro MIC, agar dilution; conditions: Haemophilus influenzae
[27] = system: P. aeruginosa (CiproS); assay: In vitro MIC, agar dilution; conditions: Pseudomonas aeruginosa, P. aeruginosa (CiproS), 24 isolates
[28] = system: Salmonella spp.; assay: In vitro MIC, agar dilution; conditions: 23 isolates
Outline: (§1)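 MIC, the lowest compound level without growth versus a drug-free BHI control plate, with faint haze or scattered colonies scored as no growth. About 10^4 CFU was replicator-spotted from 1:100 dilutions, or 1:10 for slow-growing strains, and plates were read after ~20–24 h at 35–37 °C.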

[29] = system: E. coli; assay: In vitro MIC, agar dilution; conditions: Escherichia coli, 25 isolates
Outline: as §1

**Q.** Which results are given for `C[C@@H]1CN(c2c(F)c(N)c3c(=O)c(C(=O)O)cn(C4CC4)c3c2F)C[C@H](C)N1` [Sparfloxacin, sparfloxacin]?
**A.** MIC [1]: 0.004 to 0.015 µg/mL (≈ 0.0102 to 0.0382 µM); MIC90 [2]: 0.5 µg/mL (≈ 1.27 µM); MIC ([2]; read-out: MIC Range): 0.12 to 0.5 µg/mL (≈ 0.306 to 1.27 µM); MIC50 ([2]; S. pneumoniae (PenS), 20 isolates, read-out: MIC50): 0.25 µg/mL (≈ 0.637 µM); MIC50 [3]: 0.03 µg/mL (≈ 0.0765 µM); MIC90 [3]: 0.06 µg/mL (≈ 0.153 µM); MIC ([3]; S. aureus (CiproS), 21 isolates, read-out: MIC Range): 0.03 to 0.06 µg/mL (≈ 0.0765 to 0.153 µM); MIC90 [4]: 0.25 µg/mL (≈ 0.637 µM); MIC ([4]; read-out: MIC Range): 0.12 to 0.5 µg/mL (≈ 0.306 to 1.27 µM); MIC50 ([4]; P. mirabilis, 20 isolates, read-out: MIC50): 0.25 µg/mL (≈ 0.637 µM); MIC90 [5]: 0.5 µg/mL (≈ 1.27 µM); MIC ([5]; read-out: MIC Range): 0.25 to 1 µg/mL (≈ 0.637 to 2.55 µM); MIC50 ([5]; E. faecalis (VanS), 17 isolates, read-out: MIC50): 0.5 µg/mL (≈ 1.27 µM); MIC ([6]; read-out: MIC Range): 2 to 4 µg/mL (≈ 5.1 to 10.2 µM); MIC50 ([6]; C. difficile, 10 isolates, read-out: MIC50): 4 µg/mL (≈ 10.2 µM); MIC90 ([6]; C. difficile, 10 isolates, read-out: MIC90): 4 µg/mL (≈ 10.2 µM); MIC ([7]; read-out: MIC Range): 0.12 to 16 µg/mL (≈ 0.306 to 40.8 µM); MIC50 ([7]; S. aureus (CiproR), 25 isolates, read-out: MIC50): 4 µg/mL (≈ 10.2 µM); MIC90 ([7]; S. aureus (CiproR), 25 isolates, read-out: MIC90): 8 µg/mL (≈ 20.4 µM); MIC [8]: 0.25 to 0.5 µg/mL (≈ 0.637 to 1.27 µM); MIC50 ([9]; read-out: MIC50): 0.5 µg/mL (≈ 1.27 µM); MIC90 ([9]; read-out: MIC90): 1 µg/mL (≈ 2.55 µM); MIC ([9]; read-out: MIC Range): 0.5 to 32 µg/mL (≈ 1.27 to 81.5 µM); MIC90 [10]: 0.015 µg/mL (≈ 0.0382 µM); MIC50 ([10]; N. gonorrhoeae, 12 isolates, read-out: MIC50): 0.004 µg/mL (≈ 0.0102 µM); MIC ([10]; N. gonorrhoeae, 12 isolates, read-out: MIC Range): 0.002 to 0.06 µg/mL (≈ 0.0051 to 0.153 µM); MIC90 [11]: 0.25 µg/mL (≈ 0.637 µM); MIC ([11]; read-out: MIC Range): 0.12 to 0.25 µg/mL (≈ 0.306 to 0.637 µM); MIC50 ([11]; S. pneumoniae (PenR), 25 isolates, read-out: MIC50): 0.25 µg/mL (≈ 0.637 µM); MIC90 [12]: 128 µg/mL (≈ 326 µM); MIC50 ([12]; P. aeruginosa (CiproR), 20 isolates, read-out: MIC50): 64 µg/mL (≈ 163 µM); MIC50 ([13]; read-out: MIC50): 0.12 µg/mL (≈ 0.306 µM); MIC90 ([13]; read-out: MIC90): 1 µg/mL (≈ 2.55 µM); MIC ([13]; read-out: MIC Range): 0.015 to 2 µg/mL (≈ 0.0382 to 5.1 µM); MIC [14]: 0.06 to 0.12 µg/mL (≈ 0.153 to 0.306 µM); MIC90 [15]: 0.5 µg/mL (≈ 1.27 µM); MIC ([15]; read-out: MIC Range): 0.12 to 1 µg/mL (≈ 0.306 to 2.55 µM); MIC50 ([15]; S. pyogenes, 21 isolates, read-out: MIC50): 0.25 µg/mL (≈ 0.637 µM); MIC90 [16]: 0.12 µg/mL (≈ 0.306 µM); MIC50 ([16]; S. epidermidis (CiproS), 23 isolates, read-out: MIC50): 0.06 µg/mL (≈ 0.153 µM); MIC ([16]; S. epidermidis (CiproS), 23 isolates, read-out: MIC Range): 0.03 to 0.12 µg/mL (≈ 0.0765 to 0.306 µM); MIC50 [17]: 0.03 µg/mL (≈ 0.0765 µM); MIC90 [17]: 0.5 µg/mL (≈ 1.27 µM); MIC ([17]; C. freundii, 20 isolates, read-out: MIC Range): 0.015 to 1 µg/mL (≈ 0.0382 to 2.55 µM); MIC90 [18]: 0.25 µg/mL (≈ 0.637 µM); MIC ([18]; read-out: MIC Range): 0.06 to 0.25 µg/mL (≈ 0.153 to 0.637 µM); MIC50 ([18]; H. pylori, 17 isolates, read-out: MIC50): 0.12 µg/mL (≈ 0.306 µM); MIC ([19]; read-out: MIC Range): 0.5 to 2 µg/mL (≈ 1.27 to 5.1 µM); MIC50 ([19]; B. fragilis, 18 isolates, read-out: MIC50): 1 µg/mL (≈ 2.55 µM); MIC90 ([19]; B. fragilis, 18 isolates, read-out: MIC90): 2 µg/mL (≈ 5.1 µM); MIC50 [20]: 0.03 µg/mL (≈ 0.0765 µM); MIC90 [20]: 0.06 µg/mL (≈ 0.153 µM); MIC ([20]; M. catarrhalis, 18 isolates, read-out: MIC Range): 0.015 to 0.25 µg/mL (≈ 0.0382 to 0.637 µM); MIC50 ([21]; read-out: MIC50): 0.5 µg/mL (≈ 1.27 µM); MIC90 ([21]; read-out: MIC90): 8 µg/mL (≈ 20.4 µM); MIC ([21]; read-out: MIC Range): 0.25 to 32 µg/mL (≈ 0.637 to 81.5 µM); MIC50 ([22]; read-out: MIC50): 4 µg/mL (≈ 10.2 µM); MIC90 ([22]; read-out: MIC90): 8 µg/mL (≈ 20.4 µM); MIC ([23]; read-out: MIC Range): 0.5 to 16 µg/mL (≈ 1.27 to 40.8 µM); MIC50 ([23]; M. avium, 20 isolates, read-out: MIC50): 2 µg/mL (≈ 5.1 µM); MIC90 ([23]; M. avium, 20 isolates, read-out: MIC90): 2 µg/mL (≈ 5.1 µM); MIC [24]: 8 to 32 µg/mL (≈ 20.4 to 81.5 µM); MIC90 ([25]; Enterobacter): 0.06 µg/mL (≈ 0.153 µM); MIC50 ([25]; Enterobacter spp., 35 isolates, read-out: MIC50): 0.06 µg/mL (≈ 0.153 µM); MIC ([25]; Enterobacter spp., 35 isolates, read-out: MIC Range): 0.008 to 0.25 µg/mL (≈ 0.0204 to 0.637 µM); MIC90 [26]: 0.015 µg/mL (≈ 0.0382 µM); MIC50 ([26]; H. influenzae, 18 isolates, read-out: MIC50): 0.008 µg/mL (≈ 0.0204 µM); MIC ([26]; H. influenzae, 18 isolates, read-out: MIC Range): 0.004 to 0.03 µg/mL (≈ 0.0102 to 0.0765 µM); MIC50 ([27]; read-out: MIC50): 0.5 µg/mL (≈ 1.27 µM); MIC90 ([27]; read-out: MIC90): 1 µg/mL (≈ 2.55 µM); MIC ([27]; read-out: MIC Range): 0.06 to 8 µg/mL (≈ 0.153 to 20.4 µM); MIC [28]: 0.004 to 0.5 µg/mL (≈ 0.0102 to 1.27 µM); MIC50 ([28]; read-out: MIC50): 0.03 µg/mL (≈ 0.0765 µM); MIC90 ([28]; read-out: MIC90): 0.06 µg/mL (≈ 0.153 µM); MIC [29]: 0.004 to 0.03 µg/mL (≈ 0.0102 to 0.0765 µM); MIC50 ([29]; read-out: MIC50): 0.015 µg/mL (≈ 0.0382 µM); MIC90 ([29]; read-out: MIC90): 0.03 µg/mL (≈ 0.0765 µM)
